In article PMC9131871, “Impact of Micropolymorphism Outside the Peptide Binding Groove in the Clinically Relevant Allele HLA-C*14 on T Cell Responses in HIV-1 Infection” (Journal of Virology, 2022):

System: .221-C1402 / .221-C1403 cells pulsed with peptide
Assay: ICS assay, peptide-specific bulk T cells against peptide-pulsed .221 cells
Assay type: cell-based, human
Details: IFN-γ ICS, 1 μM peptide (autologous allele) or 0.01 to 10 nM (cross-recognition), triplicate assays
Method: To confirm the HLA-C*14-restriction of the T cell responses to the 6 NL4-3-derived peptides, we expanded T cells specific for these peptides by stimulating peripheral blood mononuclear cells (PBMCs) from responders with each peptide (HLA-C*14:02^+ responders for Gag AM9, Pol KM9, and Nef AL9 and HLA-C*14:03^+ responders for Gag LY9, Nef IF8, and Nef YT9). The cultured T cells were then tested for their ability to recognize the peptides presented on 721.221 cells expressing HLA-C*14:02 (.221-C1402 cells) or HLA-C*14:03 (.221-C1403 cells) and 721.221 cells by intracellular cytokine staining (ICS) assay. Both cell lines expressed similarly high levels of HLA-C*14, although the surface expression level of HLA-C*14 on the HLA-C*14:03-transfected line was higher than that on the HLA-C*14:02 line (the ratio of relative expression of HLA-C*14:03 to that of HLA-C*14:02 was approximately 1.3:1) (Fig. 4A). […] We further analyzed cross-recognition of .221-C1402 and .221-C1403 cells prepulsed with peptides at a range of different concentrations by T cells from HLA-C*14:02^+ and HLA-C*14:03^+ individuals.
FIG 4 HLA-C*14:02- and HLA-C*14:03-restricted T cell responses to 6 putative epitope peptides. (A) Histogram plots showing surface expression of HLA-C*14:02 or HLA-C*14:03 on .221-C14:02 or .221-C14:03 cells. The relative expression level of HLA-C*14:02 versus HLA-C*14:03 [(MFI of .221-C1402 stained with DT9 − MFI of .221-C1402 stained with the second antibody)/(MFI of .221-C1403 stained with DT9 − MFI of .221-C1403 stained with the second antibody)] is 1.3. (B and C) Gag LY9-, Gag AM9-, Pol KM9-, Nef YT9-, Nef IF8-, and Nef AL9-specific bulk T cell populations were expanded by stimulating responders’ PBMCs with each peptide. The ability of these peptide-specific bulk T cells to recognize peptide-pulsed .221 cells expressing HLA-C*14 molecules was then analyzed by ICS assay. (B) T cell recognition of .221 cells expressing the patient’s autologous HLA-C*14 allele and non-HLA-C*14-expressing cells pulsed with 1 μM peptide. (C) T cell recognition of HLA-C*14:02 or HLA-C*14:03-expressing cells pulsed with the indicated peptides at concentrations from 0.01 to 10 nM was analyzed by an ICS assay. The results are means and SDs from triplicate assays.
PBMCs from HIV-1-infected individuals were stimulated with 1 μM concentrations of the corresponding peptides and then cultured for 2 weeks in RPMI 1640 medium (Thermo Fisher) containing 10% FCS, 20 ng/mL of human recombinant interleukin 2 (rIL-2) (ProSpec), 1× minimal essential medium (MEM) nonessential amino acid solution (Gibco), and 1 mM sodium pyruvate solution (Gibco). Following T cell expansion, .221-C1402 cells or .221-C1403 cells prepulsed with each HIV-1 peptide or .221-C1402 cells or .221-C1403 cells infected with HIV-1 NL4-3 were added to a 96-well plate together with bulk-cultured T cells, and the cells were incubated for 4 h at 37°C with brefeldin A ([…]). The cells were then stained with Pacific blue (PB)-labeled anti-CD3 MAb (BioLegend), FITC-labeled anti-CD19 MAb (BioLegend), allophycocyanin (APC)-labeled anti-CD8 MAb (BioLegend), and a LIVE/DEAD fixable near-infrared (IR) dead-cell staining kit (Invitrogen) and subsequently fixed with 4% paraformaldehyde and incubated in permeabilization buffer (0.1% saponin–5% FBS–PBS). Thereafter, the cells were stained with phycoerythrin (PE)-labeled anti-IFN-γ MAb (BioLegend). Staining data were acquired on a FACSCanto II instrument (BD Biosciences) and analyzed using FlowJo 10.7.1 software.

AFHHVAREL [Nef AL9]
recognition of peptide-pulsed .221 cells by peptide-specific bulk T cells: recognized the epitope peptide-pulsed .221 cells expressing their autologous HLA-C*14 allele

AFSPEVIPM [Gag AM9]
recognition of peptide-pulsed .221 cells by peptide-specific bulk T cells: recognized the epitope peptide-pulsed .221 cells expressing their autologous HLA-C*14 allele

IYHTQGYF [Nef IF8]
recognition of peptide-pulsed .221 cells by peptide-specific bulk T cells: recognized the epitope peptide-pulsed .221 cells expressing their autologous HLA-C*14 allele

KYHSNWRAM [Pol KM9]
recognition of peptide-pulsed .221 cells by peptide-specific bulk T cells: recognized the epitope peptide-pulsed .221 cells expressing their autologous HLA-C*14 allele

LYNTIAVLY [Gag LY9]
recognition of peptide-pulsed .221 cells by peptide-specific bulk T cells: recognized the epitope peptide-pulsed .221 cells expressing their autologous HLA-C*14 allele

YFPDWQNYT [Nef YT9]
recognition of peptide-pulsed .221 cells by peptide-specific bulk T cells: recognized the epitope peptide-pulsed .221 cells expressing their autologous HLA-C*14 allele
